The subject of assay [1] is chronic mild stress induced anhedonia in rats. Put plainly: chronic mild stress induced anhedonia in rats (sucrose consumption). Format: in vivo, Male Wistar rats. The source says: The model of chronic mild stress induced anhedonia in rats. […] This model is based on the observation that chronic mild stress causes a gradual decrease in sensitivity to rewards, for example consumption of sucrose, and that this decrease is dose-dependently reversed by chronic treatment with antidepressants. The method has previously been described and more information with respect to the test appears from Willner, Paul, Psycopharmacology, 1997, 134, 319-329. Male Wistar rats were trained to consume a 1% sucrose solution by nine 1-hour baseline tests in which sucrose was presented in the home cage following 14 h food and water deprivation. One group of animals was subjected to a chronic mild stress procedure for a period of 9 consecutive weeks. Each week of the stress regime consisted of two periods of food and water deprivation, two periods of 45-degree cage tilt, two periods of intermittent illumination (light on and off every 2 h), two periods of soiled cage (250 ml water saw dust bedding), two periods of paired housing, two periods of low stroboscobic illumination (150 flashes/min) and two periods of no stress. All stress periods were of 12-14 hours duration and followed continuously, day and night. Control animals were housed in separate rooms with food and water freely available except for a 14-h period preceding each sucrose test, and they had no contact with stressed animals. Stressed animals as well as control animals were divided into matched subgroups, and for subsequent five weeks they received daily intraperitoneal injections (1 ml/kg body weight) of vehicle (minimum amount of propylene glycol and methane sulfonic acid (1:1) diluted with water) or test compound. Sucrose tests were carried out 24 hours following to last drug treatment.

Another assay deals with sigma2. Particulars: cited from earlier work.
For assay [2], the system named is black/white exploration test in rats. Particulars: cited from earlier work.
Another assay concerns psychosis. The note with it: cited from earlier work.

Data on 2 compounds can be found in patent publication US6358966B2, “Treatment of depression” (H. Lundbeck A/S, priority 1998, dated 2002).

As to `Fc1ccc(-n2cc(CCCCN3CCC4(CC3)OCc3ccccc34)c3ccccc32)cc1` [compound of the invention, 1′-[4-[1-(4-fluorophenyl)-1H-indole-3-yl]-1-butyl]-spiro[isobenzofuran-1(3H),4′-piperidine]], the “consumption of sucrose in the control animals” value in assay [1] (non-stressed control rats, daily i.p. for five weeks) is “did not significantly affect”. The “sucrose intake in stressed animals versus initial scores” value in assay [1] (stressed rats, 1.0 mg/kg daily i.p.) was “significantly increased from initial scores after three, four and five weeks”. Moreover, the “reversal of chronic mild stress induced deficit in sucrose intake” value in assay [1] (stressed rats, 1.0 mg/kg daily i.p. for five weeks) is “able to reverse”. The “sigma ligand potency and selectivity” value in the assay on sigma2 is “potent and selective sigma ligand, in particular a sigma2 ligand”. Moreover, the “anxiolytic activity in the black/white exploration test” value in assay [2] is “active over a large dose range”.

As for `C[C@@H]1CN(CCCn2c3ccccc3c3ccccc32)C[C@H](C)N1` [rimcazole], the “clinical effect in the treatment of psychosis” value in the assay on psychosis was “clinically shows effect in the treatment of psychosis”.
